# Test results published in patent US9937210B2, “Method for isolating fraction having anti-inflammatory or osteoarthritis-inhibiting effects by using oyster shell chips” (Seojin Biotech Co., Ltd., priority 2012, dated 2018).
# Values joined by “and” are separate entries in the source; they are usually repeats but may differ in a detail not shown here. Equal values may be shown once.
# What was measured:
# IL-1β = test: Interleukin-1β content in blood, ELISA, papain-induced arthritis; format: in vivo, mouse; conditions: DS 2 mg/kg/bw; fraction 3 100 and 200 mg/kg/bw; oral once daily 20 days; p<0.05
# Protocol: The experiment animals were adapted in a lab environment for 1 week and then the body weight was measured. Eight animals were assigned to each group to have even body weight. In the normal group, the physiological saline 6 was injected in the right knee joint and then the physiological saline 0.2 ml was orally administered once a day for 20 days. In the treated groups, i.e., a control group, a drug-administered group and a fraction 3-administered group, papain 6 was injected in the right knee joint to induce osteoarthritis. The physiological saline in the control group, Diclofenac sodium (DS, 2 mg/kg/bw) in the drug-administered group, and 100 mg/kg/bw {below, called “fraction 3 (100)”} and 200 mg/kg/bw {below, called “fraction 3 (200)”} in the fraction 3-administered group of Example 2 were orally administered once daily at a predetermined time for 20 days. All subjects were lightly anesthetized with ether at the experiment end day to take a heart blood sample. The blood was centrifuged to isolate a serum. […] The contents of tumor necrosis factor-α (TNF-α), interleukin-1β (IL-1β) and interleukin-6 (IL-6) were measured using enzyme-linked immunosorbent assay (ELISA) kit, respectively. The effect of fraction 3 of the inflammatory cytokine IL-1β produced in large quantities in animals where arthritis was induced by injection of papain was measured by ELISA method.
# TNF-α = TNF-α content in blood, ELISA, papain-induced arthritis; format: in vivo, mouse; conditions: DS 2 mg/kg/bw; fraction 3 100 and 200 mg/kg/bw; oral once daily 20 days
# Protocol: The experiment animals were adapted in a lab environment for 1 week and then the body weight was measured. Eight animals were assigned to each group to have even body weight. In the normal group, the physiological saline 6 was injected in the right knee joint and then the physiological saline 0.2 ml was orally administered once a day for 20 days. In the treated groups, i.e., a control group, a drug-administered group and a fraction 3-administered group, papain 6 was injected in the right knee joint to induce osteoarthritis. The physiological saline in the control group, Diclofenac sodium (DS, 2 mg/kg/bw) in the drug-administered group, and 100 mg/kg/bw {below, called “fraction 3 (100)”} and 200 mg/kg/bw {below, called “fraction 3 (200)”} in the fraction 3-administered group of Example 2 were orally administered once daily at a predetermined time for 20 days. All subjects were lightly anesthetized with ether at the experiment end day to take a heart blood sample. The blood was centrifuged to isolate a serum. […] The contents of tumor necrosis factor-α (TNF-α), interleukin-1β (IL-1β) and interleukin-6 (IL-6) were measured using enzyme-linked immunosorbent assay (ELISA) kit, respectively. The effect of fraction 3 of the inflammatory cytokine TNF-α produced in large quantities in animals where arthritis was induced by injection of papain, was measured by ELISA method.
# [1] = tested on: animal models of osteoarthritis C57BL/6J mouse; test: Osteoarthritis index (histopathology, method of Rudolphi) in papain-induced osteoarthritis; format: in vivo
# Protocol: (§1) 40 eight week-old animal models of osteoarthritis C57BL/6J mouse were purchased from Central Laboratory Animal Inc. (Seoul, Korea), adapted with a general diet for 1 week and then used in the experiments. The temperature and humidity of the breeding room were maintained at 20±2° C., 50±10%, the lightening conditions were such that the light was turned on and off every 12 hours and the light was kept on from 07:00˜19:00. During the experiment, the feedstuff (Orient Bio, Seoul, Korea) and water were to be freely taken.
# (§2) The osteoarthritis was induced by the method given in the test guidelines of the effect of the herbal preparation presented by the Korean Food and Drug Administration. Papain (type IV, double crystallized, 15 units/mg, Sigma, USA) was adjusted to a concentration of 1.0% (w/v) in which 0.03 ML-cystein HCl (Sigma, USA) was supplemented for the activation of papain and then passed through the patellar ligament. […] 6 was administered in the right knee joint to induce osteoarthritis.
# The experiment animals were adapted in a lab environment for 1 week and then the body weight was measured. Eight animals were assigned to each group to have even body weight. In the normal group, the physiological saline 6 was injected in the right knee joint and then the physiological saline 0.2 ml was orally administered once a day for 20 days. In the treated groups, i.e., a control group, a drug-administered group and a fraction 3-administered group, papain 6 was injected in the right knee joint to induce osteoarthritis. The physiological saline in the control group, Diclofenac sodium (DS, 2 mg/kg/bw) in the drug-administered group, and 100 mg/kg/bw {below, called “fraction 3 (100)”} and 200 mg/kg/bw {below, called “fraction 3 (200)”} in the fraction 3-administered group of Example 2 were orally administered once daily at a predetermined time for 20 days.
# All subjects were lightly anesthetized with ether at the experiment end day to take a heart blood sample. The blood was centrifuged to isolate a serum. Immediately after taking a heart blood sample, the right hip joint and ankle joint were isolated and removed so as not to damage the knee joint. The tibial of the right knee joint was fixed in 10% neutral formalin solution for 24 hours and then used for the visual observation of the joints.
# The osteoarthritis index for the observed histopathological lesions in the articular cartilage and synovial membrane was digitalized in accordance with a method of Rudolphi, at al. and is shown in Table 2 below.
# [2] = tested on: animal models of osteoarthritis C57BL/6J mouse; test: Visual observation of knee joint cartilage surface in papain-induced osteoarthritis; format: in vivo; conditions: DS 2 mg/kg/bw; fraction 3 100 and 200 mg/kg/bw; oral once daily 20 days
# Protocol: as §1, §2
# The experiment animals were adapted in a lab environment for 1 week and then the body weight was measured. Eight animals were assigned to each group to have even body weight. In the normal group, the physiological saline 6 was injected in the right knee joint and then the physiological saline 0.2 ml was orally administered once a day for 20 days. […]
# IL-6 = test: Interleukin-6 content in blood, ELISA, papain-induced arthritis; format: in vivo, mouse; conditions: DS 2 mg/kg/bw; fraction 3 100 and 200 mg/kg/bw; oral once daily 20 days
# Protocol: The experiment animals were adapted in a lab environment for 1 week and then the body weight was measured. Eight animals were assigned to each group to have even body weight. In the normal group, the physiological saline 6 was injected in the right knee joint and then the physiological saline 0.2 ml was orally administered once a day for 20 days. In the treated groups, i.e., a control group, a drug-administered group and a fraction 3-administered group, papain 6 was injected in the right knee joint to induce osteoarthritis. The physiological saline in the control group, Diclofenac sodium (DS, 2 mg/kg/bw) in the drug-administered group, and 100 mg/kg/bw {below, called “fraction 3 (100)”} and 200 mg/kg/bw {below, called “fraction 3 (200)”} in the fraction 3-administered group of Example 2 were orally administered once daily at a predetermined time for 20 days. All subjects were lightly anesthetized with ether at the experiment end day to take a heart blood sample. The blood was centrifuged to isolate a serum. Immediately after taking a heart blood sample, the right hip joint and ankle joint were isolated and removed so as not to damage the knee joint. […] The contents of tumor necrosis factor-α (TNF-α), interleukin-1β (IL-1β) and interleukin-6 (IL-6) were measured using enzyme-linked immunosorbent assay (ELISA) kit, respectively.
# [3] = Papain + DS 2 mg/kg/bw oral once daily 20 days, group mean
# [4] = Papain + DS 2 mg/kg/bw oral once daily 20 days, individual animals 1-8
compound,measurement,setting,value
"O=C(O)Cc1ccccc1Nc1c(Cl)cccc1Cl [DS, Diclofenac sodium]",IL-1β content in blood compared with papain-administrated control group,IL-1β,significantly lower
same,TNF-α content in blood compared with papain-administrated control group,TNF-α,significantly lower
same,osteoarthritis index compared with the papain-administered control group,"[1]; DS 2 mg/kg/bw, fraction 3 100 and 200 mg/kg/bw, oral once daily 20 days, p<0.05",significantly lower
same,"Cellularity score, Mean",[1]; [3],2.0
same,"Matrix structure score, Mean",[1]; [3],2.6
same,"Subchondral bone score, Mean",[1]; [3],1.1
same,"Synovial membrane score, Mean",[1]; [3],1.5
same,"Sum of osteoarthric score, Mean","[1]; Papain + DS 2 mg/kg/bw oral once daily 20 days, group mean, papain control 19.8",7.4
same,"Cellularity score, per subject",[1]; [4],2
same,"Matrix structure score, per subject",[1]; [4],1 (3×) and 3 (4×) and 6
same,"Subchondral bone score, per subject",[1]; [4],3 (3×) and 0 (5×)
same,"Sum of osteoarthric score, per subject",[1]; [4],6 (2×) and 4 and 11 (2×) and 5 and 8 (2×)
same,"Synovial membrane score, per subject",[1]; [4],0 (3×) and 1 and 3 (4×)
same,visual appearance of knee joint cartilage surface compared with papain-administered group,[2],the scope of the discoloration was less and the elimination of visual cartilage surface was not observed
same,IL-6 content in blood compared with papain-administrated control group,IL-6,significantly lower
